Experimental data taken from the supplement of paper PMC8967900.

Experiments:
Test in all cases: selective drug sensitivity score (sDSS, relative to normal bone marrow) (sDSS (score)); higher = more potent and effective on the cell line relative to normal bone marrow cells
Conditions in all cases: 72 h
[1] = system: 380
[2] = system: JURKAT
[3] = system: MOLT-14
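Note: ALL cell lines in 384-well plates, five doses spanning 10,000-fold, each plate scaled between vehicle and 100 µmol/L benzalkonium chloride controls, sDSS an adapted area-under-curve metric.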

Row | Structure (SMILES) | selective drug sensitivity score [1] | selective drug sensitivity score [2] | selective drug sensitivity score [3]
1 | CC(C)Nc1cc(-c2c[nH]c(C(=O)N[C@H](CO)c3cccc(Cl)c3)c2)c(Cl)cn1 [Ulixertinib] (top concentration 10000 nM) | -4.38 | -1.08 | 6.12
2 | CC(C)[C@H](C(=O)Nc1ccc(C(=O)NO)cc1)c1ccccc1 [AR-42] (top concentration 10000 nM) | 10.1 | 5.28 | 8.48
3 | C[C@@]1(C(=O)Nc2ccc(F)nc2)CCCN1c1nc(Nc2cc(C3CC3)n[nH]2)c2cccn2n1 (top concentration 10000 nM) | 18.1 | -2.62 | 12.7
4 | COc1cccc2c1C(=O)c1c(O)c3c(c(O)c1C2=O)C[C@@](O)(/C(CO)=N/NC(=O)CCCCCN1C(=O)C=CC1=O)C[C@@H]3O[C@H]1C[C@H](N)[C@H](O)[C@H](C)O1 [Aldoxorubicin] (top concentration 1000 nM) | 13.2 | 1.64 | 12.9
5 | C[C@@H]1COCCN1c1cc(C2([S@](C)(=N)=O)CC2)nc(-c2cc[nH]c3nccc2-3)n1 [AZD6738] (top concentration 25000 nM) | 19.5 | 3.88 | 11.5
6 | CO[C@H](C(=O)[C@@H](O)[C@@H](C)O)[C@@H]1Cc2cc3cc(O[C@H]4C[C@@H](O[C@H]5C[C@@H](O)[C@H](O)[C@@H](C)O5)[C@@H](O)[C@@H](C)O4)c(C)c(O)c3c(O)c2C(=O)[C@H]1O[C@H]1C[C@@H](O[C@H]2C[C@@H](O[C@H]3C[C@](C)(O)[C@H](O)[C@@H](C)O3)[C@H](O)[C@@H](C)O2)[C@H](O)[C@@H](C)O1 [Plicamycin] (top concentration 10000 nM) | 7.14 | -11.2 | -10.3
7 | O=C(Nc1nc2cccc(-c3ccc(CN4CCS(=O)(=O)CC4)cc3)n2n1)C1CC1 [Filgotinib] (top concentration 10000 nM) | 11.7 | -1.34 | -0.44
8 | CCN(CCO)CCCOc1ccc2c(Nc3cc(CC(=O)Nc4cccc(F)c4)[nH]n3)ncnc2c1 [AZD1152-HQPA] (top concentration 1000 nM) | 20.8 | -0.26 | 17.8
9 | CC1(C)CCC(c2ccc(Cl)cc2)=C(CN2CCN(c3ccc(C(=O)NS(=O)(=O)c4ccc(N[C@H](CCN5CCOCC5)CSc5ccccc5)c(S(=O)(=O)C(F)(F)F)c4)cc3)CC2)C1 [Navitoclax] (top concentration 10000 nM) | 26.1 | 9.02 | 12.7
